From patent US8865623B2, “Herbicidally active cyclic diones and derivatives thereof, processes for their preparation, compositions, and method of controlling weeds” (Syngenta Limited, priority 2009, dated 2014)

Legend:
Assay type in all cases: in vivo
[1] = tested on: Alopecurus myosuroides (ALOMY); test: Pre-emergence herbicidal activity, glasshouse pot test; settings: Alopecurus myosuroides, 312 h; Rate 250 g/ha; pre-emergence spray; evaluated after 13 days; read-out: Pre-emergence activity ALOMY (100=total damage to plant; 0=no damage to plant)
Outline: (§1)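 Pot-grown plants in standard soil received a spray one day post-sowing (pre-emergence) or after eight days' growth (post-emergence). Scoring took place 13 days later on a 0–100 scale, 100 meaning total damage.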

Lolium perenne (LOLPE) [2] = test: as above; settings: Lolium perenne, 312 h; Rate 250 g/ha; pre-emergence spray; evaluated after 13 days; read-out: Pre-emergence activity LOLPE (100=total damage to plant; 0=no damage to plant)
Outline: as §1

Avena fatua (AVEFA) [3] = test: as above; settings: Avena fatua, 312 h; Rate 250 g/ha; pre-emergence spray; evaluated after 13 days; read-out: Pre-emergence activity AVEFA (100=total damage to plant; 0=no damage to plant)
Outline: as §1

[4] = tested on: Echinochloa crus-galli (ECHCG); test: as above; settings: Echinochloa crus-galli, 312 h; Rate 250 g/ha; pre-emergence spray; evaluated after 13 days; read-out: Pre-emergence activity ECHCG (100=total damage to plant; 0=no damage to plant)
Outline: as §1

[5] = tested on: Alopecurus myosuroides (ALOMY); test: Post-emergence herbicidal activity, glasshouse pot test; settings: Alopecurus myosuroides, 312 h, rate 250 g/ha, evaluated after 13 days, glasshouse, read-out: Post-emergence activity ALOMY (100=total damage to plant; 0=no damage to plant)
Outline: as §1

Lolium perenne (LOLPE) [6] = test: as above; settings: Lolium perenne, 312 h, rate 250 g/ha, evaluated after 13 days, glasshouse, read-out: Post-emergence activity LOLPE (100=total damage to plant; 0=no damage to plant)
Outline: as §1

Avena fatua (AVEFA) [7] = test: as above; settings: Avena fatua, 312 h, rate 250 g/ha, evaluated after 13 days, glasshouse, read-out: Post-emergence activity AVEFA (100=total damage to plant; 0=no damage to plant)
Outline: as §1

[8] = tested on: Echinochloa crus-galli (ECHCG); test: as above; settings: Echinochloa crus-galli, 312 h, rate 250 g/ha, evaluated after 13 days, glasshouse, read-out: Post-emergence activity ECHCG (100=total damage to plant; 0=no damage to plant)
Outline: as §1

SMILES	pest or weed control at 250 g/ha [1] [%]	pest or weed control at 250 g/ha (Lolium perenne (LOLPE) [2]) [%]	pest or weed control at 250 g/ha (Avena fatua (AVEFA) [3]) [%]	pest or weed control at 250 g/ha [4] [%]	pest or weed control at 250 g/ha [5] [%]	pest or weed control at 250 g/ha (Lolium perenne (LOLPE) [6]) [%]	pest or weed control at 250 g/ha (Avena fatua (AVEFA) [7]) [%]	pest or weed control at 250 g/ha [8] [%]
CCc1ccc(Oc2nc3ccc([N+](=O)[O-])cc3s2)cc1C1=C(O)CC2(CCOCC2)CC1=O [Example A-265]	60	80	0	90	70	70	70	100
CCc1ccc(Oc2nnc3cc(Cl)ccc3n2)cc1C1=C(O)C(C)(C)OC(C)(C)C1=O [Example A-237]	10	20	10	40	10	10	10	70
CCc1ccc(Oc2nc3ccc(OC)cc3s2)cc1C1=C(O)[C@H]2CC[C@H](C2)C1=O [Example A-343]	50	100	50	100	50	80	80	100
CCc1ccc(Oc2ncc(C(F)(F)F)cc2Cl)cc1C1=C(O)[C@H]2CC[C@H](C2)C1=O [Example A-335]	100	100	90	100	100	100	90	100
CCc1ccc(Oc2ccc(Cl)c(F)c2)cc1C1=C(O)C(C)(C)CCC1=O [Example A-52]	40	70	20	60	30	50	40	90
CCc1ccc(Oc2ccc(F)cc2F)cc1C1=C(O)CC(C)(C)CC1=O [Example A-47]	50	40	0	90	30	30	10	80
CCc1ccc(Oc2nc3cc4c(cc3s2)OCCO4)cc1C1=C(O)C(C)(C)OC(C)(C)C1=O [Example A-215]	0	0	0	20	10	20	0	40
CCc1ccc(Oc2ccc([N+](=O)[O-])c(Cl)c2)cc1C1=C(O)C(C)(C)OC(C)(C)C1=O [Example A-67]	90	100	90	100	100	90	80	100
CCc1ccc(Oc2ccc(C#N)cc2C(F)(F)F)cc1C1=C(O)CC2(CCOCC2)CC1=O [Example A-306]	60	70	0	100	70	60	80	100
